The record followed here is US20180311244A1, “METHODS OF TREATING LIVER DISEASE” (Gilead Sciences, Inc., priority 2017, published 2018).

SMILES strings stand for the structures. Marks after values point to notes of the source that are not given here.

Data set [1] relates to rodent model of non-alcoholic steatohepatitis (NASH). The experiment in a line: Picrosirius Red staining of liver in CDHFD rat NASH model. The class given is in vivo. As to conditions: CDHFD rats, 12 weeks; ASK1i 0.03% in chow, Formula (III) 10 mg/kg QD PO; FIG. 7. As to the method: The following study was conducted to evaluate the efficacy of the combination of an ASK1 inhibitor (ASK1i) and an ACC inhibitor (ACCi) in a rodent model of non-alcoholic steatohepatitis (NASH) relative to the efficacy of the individual agents alone in the model. In this model, NASH was induced in male Wistar rats by administration of a choline-deficient high fat diet (CDHFD).
Male Wistar (Crl:Wi(Han)) rats (aged 8-9 weeks at arrival) were acquired from Charles River, Raleigh, N.C. and used in the current studies. This study complie with all applicable sections of the Final Rules of the Animal Welfare Act regulations (Code of Federal Regulations, Title 9), the Public Health Service Policy on Humane Care and Use of Laboratory Animals from the Office of Laboratory Animal Welfare, and the Guide for the Care and Use of Laboratory Animals from the National Research Council. […]
Whole slide images of Picrosirius Red (PSR) stained slides were captured using a Leica AT2 scanner at 40× magnification. […] Quantitative image analysis was performed on the whole slide images using Visiopharm image analysis software (Visiopharm, Hoersholm, Denmark) to determine the extent and intensity of PSR. The total PSR-stained area was measured and expressed as a percentage of total liver area stained.

The next data set relates to subjects with NASH. The experiment in a line: 12-week study of ASK1 inhibitor, ACC inhibitor and combination in subjects with NASH. It is filed as in vivo, human. The procedure: Centrally-read PDFF and MRE, and serum fibrosis markers were measured at baseline (BL), W4 and W12. Deuterated water was administered to measure fractional synthesis of lipids (de novo lipogenesis [DNL]).

Setting [2] is: W12, orally QD, Formula (II) 18 mg, Formula (IV) 20 mg, combination 18/20 mg.
[3] abbreviates: serum, W12, orally QD, Formula (II) 18 mg, Formula (IV) 20 mg, combination 18/20 mg.

For the molecule `COc1ccccc1[C@H](Cn1c(=O)n(C(C)(C)C(=O)O)c(=O)c2c(C)c(-c3ncco3)sc21)O[C@H]1CC[C@@H](O)CC1` [Formula (III)], the “Reduction of hepatic PSR (% area)” value in data set [1] came out at 50%.

Regarding `COc1ccccc1[C@H](Cn1c(=O)n(C(C)(C)C(=O)O)c(=O)c2c(C)c(-c3ncco3)sc21)OC1CCOCC1` [Formula (IV)], the “PDFF compared with BL (in words)” value with subjects with NASH (12 weeks orally QD, Formula (IV) p=0.006, combination p<0.001) is “significant improvements”. Further, the “ALT compared with BL (in words)” value with subjects with NASH (12 weeks orally QD, combination p=0.019) is reported as “non-significant reductions”. For the same molecule, the “PIII-NP compared with BL (in words)” value with subjects with NASH (12 weeks orally QD, combination p=0.057) is “non-significant reductions”. Also, the “TIMP-1 compared with BL (in words)” value with subjects with NASH (12 weeks orally QD, p=0.049) is “significant improvements”. Also, in the data set with subjects with NASH (12 weeks, orally QD, Formula (II) 18 mg, Formula (IV) 20 mg, combination 18/20 mg), the “Grade 2 or higher AE, % of subjects” value is 40%. In the data set with subjects with NASH (setting [2]), the “ALT, median relative (%) change from BL” value is reported as −33.5%; the “GGT, median relative (%) change from BL” value is −1.6%; the “MRE, median relative (%) change from BL” value was −8.9%; the “MRI-PDFF, median relative (%) change from BL” value was −42.7* %. Further, in the data set on subjects with NASH (setting [2]), the “≥30% reduction in MRI-PDFF, % of subjects” value was found to be 70%. In addition, in the data set on subjects with NASH (setting [3]), the “PIII-NP, median relative (%) change from BL” value is reported as −11.9% and the “TIMP-1, median relative (%) change from BL” value was −11.6* %.
